Data: article PMC8260761, “A bacteriocin-based treatment option for Staphylococcus haemolyticus biofilms” (Scientific Reports, 2021)

Assays:
Assay in all cases: Spot-on-lawn inhibition assay
Format in all cases: cell-based
S. epidermidis = system: S. epidermidis; parameters: key: “-“ = No inhibition; “+” = Unclear zone; “++” = zone < 1 cm; “+++”= zone > 1 cm; conditions: S. epidermidis LMG 3522; 5 µl at 1 mg/ml; n=3
Procedure: (§1) A semi-quantitative spot-on-lawn inhibitory assay was performed on 51 bacterial indicator strains (Table S1) to determine the bacteriocins inhibition spectra. Overnight cultures were diluted 1:100 in BHI soft agar and distributed on BHI agar plates. Once solidified, bacteriocins with various concentrations were applied on designated spots. The plates were incubated at appropriate temperature O/N and inhibition zones were measured the following day. To determine minimal inhibitory concentration (MIC50) of H1 against clinical S. haemolyticus isolates (Table S2), as well as strains heterologously expressing RseP (Table S4), the microtiterplate antimicrobial assay was performed as previously described[41],[79]. MIC50 was defined as the minimal bacteriocin concentration needs to inhibit the growth of a bacterial strain by at least 50%.

Staphylococcus arlettae = system: Staphylococcus arlettae; parameters: key: “-“ = No inhibition; “+” = Unclear zone; “++” = zone < 1 cm; “+++”= zone > 1 cm; conditions: Staphylococcus arlettae LMG 4134; 5 µl at 1 mg/ml; n=3
Procedure: as §1

L. monocytogenes [1] = system: L. monocytogenes; parameters: key: “-“ = No inhibition; “+” = Unclear zone; “++” = zone < 1 cm; “+++”= zone > 1 cm; conditions: 5 µl at 1 mg/ml, n=3
Procedure: as §1

L. innocua = system: L. innocua; parameters: key: “-“ = No inhibition; “+” = Unclear zone; “++” = zone < 1 cm; “+++”= zone > 1 cm; conditions: 5 µl at 1 mg/ml, n=3
Procedure: as §1

Bacillus cereus = system: Bacillus cereus; parameters: key: –: “−” = No inhibition; “+” = Unclear zone; “++” = zone < 1 cm; “+++” = zone ≥ 1 cm; conditions: 5 µl at 1 mg/ml, n=3
Procedure: as §1

C. piscicola = system: C. piscicola; parameters: key: –: “−” = No inhibition; “+” = Unclear zone; “++” = zone < 1 cm; “+++” = zone ≥ 1 cm; conditions: C. piscicola LMG 2332; 5 µl at 1 mg/ml; n=3
Procedure: as §1

S. uberis = system: S. uberis; parameters: key: –: “−” = No inhibition; “+” = Unclear zone; “++” = zone < 1 cm; “+++” = zone ≥ 1 cm; conditions: S. uberis 7904-3; 5 µl at 1 mg/ml; n=3
Procedure: as §1

L. monocytogenes [2] = system: L. monocytogenes; parameters: key: –: “−” = No inhibition; “+” = Unclear zone; “++” = zone < 1 cm; “+++” = zone ≥ 1 cm; conditions: L. monocytogenes EDGe; 5 µl at 1 mg/ml; n=3
Procedure: as §1

[3] = system: Staphylococcus haemolyticus strains; parameters: key to Average inhibition score: –: “−” = No inhibition; “+” = Unclear zone; “++” = zone < 1 cm; “+++” = zone ≥ 1 cm
Procedure: as §1

## MKFKFNPTGTIVKKLTQYEIAWFKNKHGYYPWEIPRC [K1, enterocin K1]
S. epidermidis
  Average inhibition score: -
Staphylococcus arlettae
  Average inhibition score: -
L. monocytogenes [1]; L. monocytogenes 223
  Average inhibition score: -
L. monocytogenes [1]; L. monocytogenes 279
  Average inhibition score: -
L. monocytogenes [1]; L. monocytogenes 400
  Average inhibition score: -
L. monocytogenes [1]; L. monocytogenes 403
  Average inhibition score: -
L. innocua; L. innocua LMG 2710
  Average inhibition score: ++ (“++” = zone < 1 cm)
L. innocua; L. innocua LMG 2785
  Average inhibition score: +++ (“+++”= zone > 1 cm)
Bacillus cereus; B. cereus LMG 2711
  Average inhibition score: +
Bacillus cereus; B. cereus LMG 2731
  Average inhibition score: +
Bacillus cereus; Bacillus cereus LMG 2805
  Average inhibition score: +
C. piscicola
  Average inhibition score: +
S. uberis
  Average inhibition score: +
L. monocytogenes [2]
  Average inhibition score: +
[3]; S. haemolyticus 4068, 5 μl at 1 mg/ml, n = 3
  Average inhibition score: –
[3]; S. haemolyticus 4069, 5 μl at 1 mg/ml, n = 3
  Average inhibition score: –
[3]; S. haemolyticus 4070, 5 μl at 1 mg/ml, n = 3
  Average inhibition score: –
[3]; S. haemolyticus 4071, 5 μl at 1 mg/ml, n = 3
  Average inhibition score: –
[3]; S. haemolyticus 4072, 5 μl at 1 mg/ml, n = 3
  Average inhibition score: –
[3]; S. haemolyticus 4073, 5 μl at 1 mg/ml, n = 3
  Average inhibition score: –
[3]; S. haemolyticus 7067_4_21, 5 μl at 1 mg/ml, n = 3
  Average inhibition score: –
[3]; S. haemolyticus 7067_4_28, 5 μl at 1 mg/ml, n = 3
  Average inhibition score: –
[3]; S. haemolyticus 7067_4_39, 5 μl at 1 mg/ml, n = 3
  Average inhibition score: –
[3]; S. haemolyticus 7067_4_48, 5 μl at 1 mg/ml, n = 3
  Average inhibition score: –
[3]; S. haemolyticus 7067_4_49, 5 μl at 1 mg/ml, n = 3
  Average inhibition score: –
[3]; S. haemolyticus 7067_4_56, 5 μl at 1 mg/ml, n = 3
  Average inhibition score: –
[3]; S. haemolyticus 7067_4_60, 5 μl at 1 mg/ml, n = 3
  Average inhibition score: ++ (“++” = zone < 1 cm)
[3]; S. haemolyticus 7067_4_66, 5 μl at 1 mg/ml, n = 3
  Average inhibition score: –
[3]; S. haemolyticus 7067_4_67, 5 μl at 1 mg/ml, n = 3
  Average inhibition score: –
[3]; S. haemolyticus 7067_4_71, 5 μl at 1 mg/ml, n = 3
  Average inhibition score: –
[3]; S. haemolyticus 7067_4_84, 5 μl at 1 mg/ml, n = 3
  Average inhibition score: –
[3]; S. haemolyticus 7068_7_63, 5 μl at 1 mg/ml, n = 3
  Average inhibition score: –
[3]; S. haemolyticus LMG 4133, 5 µl at 1 mg/ml, n=3
  Average inhibition score: +
[3]; S. haemolyticus SH01, 5 μl at 1 mg/ml, n = 3
  Average inhibition score: –
[3]; S. haemolyticus SH04, 5 μl at 1 mg/ml, n = 3
  Average inhibition score: –
[3]; S. haemolyticus SH09, 5 μl at 1 mg/ml, n = 3
  Average inhibition score: –
[3]; S. haemolyticus SH10, 5 μl at 1 mg/ml, n = 3
  Average inhibition score: +
[3]; S. haemolyticus SH14, 5 μl at 1 mg/ml, n = 3
  Average inhibition score: –
[3]; S. haemolyticus SH20, 5 μl at 1 mg/ml, n = 3
  Average inhibition score: +
[3]; S. haemolyticus SH46, 5 μl at 1 mg/ml, n = 3
  Average inhibition score: –
[3]; S. haemolyticus SH47, 5 μl at 1 mg/ml, n = 3
  Average inhibition score: +
[3]; six S. haemolyticus strains 4068–4073, 0.04, 0.2 and 1.0 mg/ml, 5 µl spotted
  Inhibition zones at three concentrations: did not result in any inhibition
